In ChEMBL document CHEMBL4477229, “Design and Characterization of Superpotent Bivalent Ligands Targeting Oxytocin Receptor Dimers via a Channel-Like Structure” (J Med Chem, 2016):
Positions count from the first letter of the chain named. The source made the active and inactive calls. The calls are words filed in the database; no cut-off is given here. Bridge positions count the residues as written; N and C are the ends. Square brackets hold non-standard residues; d marks the D form. Peptide text beside a SMILES is read from it. I, II: the chains in the order shown. * marks the point of attachment. C14 diacid = O=C(O)CCCCCCCCCCCCC(=O)*; Octanoyl = CCCCCCCC(=O)*; Mpa = O=C(O)CCS

Key:
[1] = molecular target: T1, Oxytocin receptor (Homo sapiens) (UniProt P30559); assay: Displacement of [125I]-OVTA from human oxytocin receptor expressed in COS7 cell membrane; assay type: cell membranes
T1 sequence (whole entry): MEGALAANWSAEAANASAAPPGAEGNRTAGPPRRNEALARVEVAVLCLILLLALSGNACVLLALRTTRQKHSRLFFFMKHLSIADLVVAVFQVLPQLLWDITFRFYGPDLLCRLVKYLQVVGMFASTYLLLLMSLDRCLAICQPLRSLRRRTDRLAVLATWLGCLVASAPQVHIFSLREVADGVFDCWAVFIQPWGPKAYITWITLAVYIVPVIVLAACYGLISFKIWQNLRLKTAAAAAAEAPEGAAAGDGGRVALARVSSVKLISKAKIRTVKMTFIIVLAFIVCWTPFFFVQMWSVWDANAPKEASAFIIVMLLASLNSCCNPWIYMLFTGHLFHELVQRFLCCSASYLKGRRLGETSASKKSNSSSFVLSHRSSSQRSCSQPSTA

Oxytocin receptor [2] = molecular target: T2, Oxytocin receptor (Homo sapiens, UniProt P30559); assay: (§1) Agonist activity at human oxytocin receptor expressed in HEK293 cells coexpressing Rluc8-tagged Galphaq, N-terminal GFP-tagged Ggamma2 and Gbeta1 protein incubated for 2 mins in presence of TMH1-TAT peptide by Gq protein activation based BRET assay; assay type: cell-based
T2 sequence (P30559 whole entry): T1 sequence (whole entry)

[3] = molecular target: T1, Oxytocin receptor (Homo sapiens); assay: as §1; assay type: cell-based; parameters: unit not given here
[4] = test system: T3, Oxytocin receptor (Homo sapiens), P30559 [V43A,C47A]; assay: (§2) Agonist activity at human oxytocin receptor V43A/C47A double mutant expressed in HEK293 cells coexpressing Rluc8-tagged Galphaq, N-terminal GFP-tagged Ggamma2 and Gbeta1 protein incubated for 2 mins by Gq protein activation based BRET assay; assay type: cell-based; parameters: unit not given here
T3 sequence (whole entry): T1 sequence (whole entry) with V43A, C47A

Oxytocin receptor [5] = molecular target: T4, Oxytocin receptor (Homo sapiens, UniProt P30559, C47A/V43A); assay: as §2; assay type: cell-based
T4 sequence (P30559 whole entry V43A/C47A): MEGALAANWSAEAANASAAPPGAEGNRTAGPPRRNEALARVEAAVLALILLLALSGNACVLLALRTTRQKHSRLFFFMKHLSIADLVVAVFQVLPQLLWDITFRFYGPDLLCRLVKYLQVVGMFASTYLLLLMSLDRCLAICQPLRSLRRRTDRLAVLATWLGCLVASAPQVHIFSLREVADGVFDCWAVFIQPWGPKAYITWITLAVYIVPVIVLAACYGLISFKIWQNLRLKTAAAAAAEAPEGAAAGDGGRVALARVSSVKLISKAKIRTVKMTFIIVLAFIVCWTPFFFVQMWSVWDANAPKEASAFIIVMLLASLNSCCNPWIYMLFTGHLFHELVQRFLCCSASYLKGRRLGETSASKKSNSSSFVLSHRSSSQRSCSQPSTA

[6] = molecular target: T1, Oxytocin receptor (Homo sapiens); assay: Ratio of EC50 for human oxytocin receptor low affinity site expressed in HEK293 cells coexpressing Rluc8-tagged Galphaq, N-terminal GFP-tagged Ggamma2 and Gbeta1 protein to Ki for human oxytocin receptor low affinity site expressed in COS7 cell membrane; assay type: cell-based
[7] = test system: T5, Oxytocin receptor (Homo sapiens), P30559 [C47A]; assay: (§3) Agonist activity at human oxytocin receptor C47A mutant expressed in HEK293 cells coexpressing Rluc8-tagged Galphaq, N-terminal GFP-tagged Ggamma2 and Gbeta1 protein incubated for 2 mins by Gq protein activation based BRET assay; assay type: cell-based; parameters: unit not given here
T5 sequence (whole entry): T1 sequence (whole entry) with C47A

Oxytocin receptor [8] = molecular target: T6, Oxytocin receptor (Homo sapiens, UniProt P30559, C47A); assay: as §3; assay type: cell-based
T6 sequence (P30559 whole entry C47A): as the sequence (P30559 whole entry V43A/C47A) above, with A43V counted along it

Oxytocin receptor [9] = molecular target: T2, Oxytocin receptor; assay: (§4) Agonist activity at human oxytocin receptor expressed in HEK293 cells coexpressing Rluc8-tagged Galphaq, N-terminal GFP-tagged Ggamma2 and Gbeta1 protein incubated for 2 mins by Gq protein activation based BRET assay; assay type: cell-based
[10] = molecular target: T1, Oxytocin receptor (Homo sapiens); assay: as §4; assay type: cell-based; parameters: unit not given here
[11] = molecular target: T1, Oxytocin receptor (Homo sapiens); assay: Ratio of EC50 for human oxytocin receptor high affinity site expressed in HEK293 cells coexpressing Rluc8-tagged Galphaq, N-terminal GFP-tagged Ggamma2 and Gbeta1 protein to Ki for human oxytocin receptor high affinity site expressed in COS7 cell membrane; assay type: cell-based
Oxytocin receptor [12] = molecular target: T2, Oxytocin receptor; assay: Agonist activity at human oxytocin receptor low affinity site expressed in HEK293 cells coexpressing Rluc8-tagged Galphaq, N-terminal GFP-tagged Ggamma2 and Gbeta1 protein incubated for 2 mins by Gq protein activation based BRET assay; assay type: cell-based
Oxytocin receptor [13] = molecular target: T2, Oxytocin receptor; assay: Agonist activity at human oxytocin receptor high affinity site expressed in HEK293 cells coexpressing Rluc8-tagged Galphaq, N-terminal GFP-tagged Ggamma2 and Gbeta1 protein incubated for 2 mins by Gq protein activation based BRET assay; assay type: cell-based
Oxytocin receptor [14] = molecular target: T2, Oxytocin receptor; assay: (§5) Agonist activity at human oxytocin receptor expressed in HEK293 cells coexpressing Rluc8-tagged Galphaq, N-terminal GFP-tagged Ggamma2 and Gbeta1 protein incubated for 2 mins in presence of TMH5-TAT peptide by Gq protein activation based BRET assay; assay type: cell-based
[15] = molecular target: T1, Oxytocin receptor (Homo sapiens); assay: as §5; assay type: cell-based; parameters: unit not given here
Mus musculus = assay: Effect on social behavior in OXTR+/- DBA/2J mouse assessed as increase in time spent exploring stranger mouse over time spent exploring empty cage at 0.5 ng/mouse, icv administered as single dose measured for 10 mins by three chamber method; assay type: functional, organism-based
Oxytocin receptor [16] = molecular target: T6, Oxytocin receptor; assay: Agonist activity at human oxytocin receptor C47A mutant high affinity site expressed in HEK293 cells coexpressing Rluc8-tagged Galphaq, N-terminal GFP-tagged Ggamma2 and Gbeta1 protein incubated for 2 mins by Gq protein activation based BRET assay; assay type: cell-based
Oxytocin receptor [17] = molecular target: T6, Oxytocin receptor; assay: Agonist activity at human oxytocin receptor C47A mutant low affinity site expressed in HEK293 cells coexpressing Rluc8-tagged Galphaq, N-terminal GFP-tagged Ggamma2 and Gbeta1 protein incubated for 2 mins by Gq protein activation based BRET assay; assay type: cell-based
Oxytocin receptor [18] = molecular target: T4, Oxytocin receptor; assay: Agonist activity at human oxytocin receptor V43A/C47A double mutant low affinity site expressed in HEK293 cells coexpressing Rluc8-tagged Galphaq, N-terminal GFP-tagged Ggamma2 and Gbeta1 protein incubated for 2 mins by Gq protein activation based BRET assay; assay type: cell-based
Oxytocin receptor [19] = molecular target: T4, Oxytocin receptor; assay: Agonist activity at human oxytocin receptor V43A/C47A double mutant high affinity site expressed in HEK293 cells coexpressing Rluc8-tagged Galphaq, N-terminal GFP-tagged Ggamma2 and Gbeta1 protein incubated for 2 mins by Gq protein activation based BRET assay; assay type: cell-based

Row | EC50 (Oxytocin receptor [2]) [nM] | Emax [3] | Emax [4] | Emax [7] | EC50 (Oxytocin receptor [9]) [nM] | Emax [10] | EC50 (Oxytocin receptor [14]) [nM] | Emax [15] | SMILES | also measured
1 | 0.92 | -0.15 | -0.08 | -0.15 | 4 | -0.11 to -0.1 | 0.75 | -0.14 | CC[C@H](C)[C@@H]1NC(=O)[C@H](Cc2ccc(O)cc2)NC(=O)CCSSC[C@@H](C(=O)N2CCC[C@H]2C(=O)N[C@@H](CCCCN)C(=O)NCC(N)=O)NC(=O)[C@H](CC(N)=O)NC(=O)[C@H](CCC(N)=O)NC1=O ([Mpa]YIQNCPKG-NH2; disulfide 1-6) | KiH [1]: 21 pM; KiL [1]: 3.35 nM; EC50 (Oxytocin receptor [5]): 33.4 nM; Ratio [6]: 10; EC50 (Oxytocin receptor [8]): 2.8 nM; Ratio [11]: 10; EC50 (Oxytocin receptor [12]): 74.8 nM; EC50 (Oxytocin receptor [13]): 0.265 nM
2 | – | – | – | – | – | – | – | – | CC[C@H](C)[C@@H]1NC(=O)[C@H](Cc2ccc(O)cc2)NC(=O)[C@@H](N)CSSC[C@@H](C(=O)N2CCC[C@H]2C(=O)N[C@@H](CC(C)C)C(=O)NCC(N)=O)NC(=O)[C@H](CC(N)=O)NC(=O)[C@H](CCC(N)=O)NC1=O | Activity (Mus musculus): Active
3 | 15.4 | -0.144 | -0.11 | -0.11 | 29.4 | -0.1 | 59 | -0.145 | CC[C@H](C)[C@@H]1NC(=O)[C@H](Cc2ccc(O)cc2)NC(=O)CCSSC[C@@H](C(=O)N2CCC[C@H]2C(=O)N[C@@H](CCCCNC(=O)CCCCCCCCCCCCC(=O)NCCCC[C@H](NC(=O)[C@@H]2CCCN2C(=O)[C@@H]2CSSCCC(=O)N[C@@H](Cc3ccc(O)cc3)C(=O)N[C@@H]([C@@H](C)CC)C(=O)N[C@@H](CCC(N)=O)C(=O)N[C@@H](CC(N)=O)C(=O)N2)C(=O)NCC(N)=O)C(=O)NCC(N)=O)NC(=O)[C@H](CC(N)=O)NC(=O)[C@H](CCC(N)=O)NC1=O (I: [Mpa]YIQNCPKG-NH2 / II: [Mpa]YIQNCPKG-NH2; disulfide I:1-I:6, II:1-II:6; linker I:8-II:8 via C14 diacid) | EC50 (Oxytocin receptor [16]): 0.0014 nM; EC50 (Oxytocin receptor [17]): 301 nM; EC50 (Oxytocin receptor [18]): 867 nM; EC50 (Oxytocin receptor [19]): 0.011 nM
4 | – | – | – | – | 4.1 | -0.11 | – | – | CCCCCCCC(=O)NCCCC[C@H](NC(=O)[C@@H]1CCCN1C(=O)[C@@H]1CSSCCC(=O)N[C@@H](Cc2ccc(O)cc2)C(=O)N[C@@H]([C@@H](C)CC)C(=O)N[C@@H](CCC(N)=O)C(=O)N[C@@H](CC(N)=O)C(=O)N1)C(=O)NCC(N)=O ([Mpa]YIQNCPK(Octanoyl)G-NH2; disulfide 1-6) | –
